Measured values taken from paper PMC5894102 (Journal of medicinal chemistry, 2017).

How the values were obtained:
in vitro = conditions: human, A673 cells
CYP = conditions: cited from earlier work
[1] = cited from earlier work
[2] = molecular target: human lactate dehydrogenase 5 (LDHA) (Homo sapiens, UniProt P00338); experiment: LDHA biochemical assay
LDHA = LDHA (Homo sapiens, UniProt P00338); type: cell-based
[3] = Mouse pharmacokinetic study; type: in vivo, CD1 mice; conditions: male, CD1, mouse, plasma, iv, 2 mg/kg
MiaPaCa-2 cells = conditions: 120 hours

Work on `COc1ncc(-c2ccc3c(Nc4cc(Oc5cc(F)cc(F)c5)cc(C(=O)O)c4)c(S(=O)(=O)NC4CC4)cnc3c2)c(OC)n1` [Analog 2] yielded an IC50 at 48 h (in vitro) greater than 57 µM.
For `O=C(O)c1csc(-n2nc(-c3ccccc3)cc2C(F)(F)F)n1` [Analog 5], the CYP inhibition (CYP) is listed as “no appreciable CYP inhibition” and the “stability in human plasma” value [1] is listed as “stable in human plasma”.
For `O=C(O)c1csc(-n2nc(-c3ccccc3)cc2O)n1` [Analog 11], the “improvement in potency on replacing CF3 by OH” value [2] was greater than 100 fold.
`O=C(O)c1csc(-n2nc(-c3ccc(F)cc3)cc2O)n1` [Analog 16] showed an IC50 [2] of 0.15 µM.
`NS(=O)(=O)c1ccc(Cc2cn(-c3nc(C(=O)O)cs3)nc2-c2ccc(F)c(F)c2)cc1` [Analog 42] gave an IC50 at 48 h (in vitro) greater than 57 µM.
With `NS(=O)(=O)c1ccc(Cc2cn(-c3nc(C(=O)O)cs3)nc2-c2cccc(-c3ccccc3)c2)cc1` [Analog 44] the “CETSA: Cellular LDHA stabilization Max stab. (norm'd)” value (LDHA; A673 cells, Western blot band intensity scaled to maximum response of 44) was 100.0.
`NS(=O)(=O)c1ccc(Cc2c(-c3cccc(-c4ccccc4)c3)nn(-c3nc(C(=O)O)cs3)c2C2CC2)cc1` [Analog 61] gave a half-life [3] of 51 min.
In the case of `NS(=O)(=O)c1ccc(Cc2c(-c3ccccc3)nn(-c3nc(C(=O)O)cs3)c2CC2CC2)cc1` [Analog 62], the “CETSA: Cellular LDHA stabilization AUC (norm'd)” value (LDHA) is reported as 100.00.
In the case of `NS(=O)(=O)c1ccc(Cc2c(-c3cccc(-c4ccccc4)c3)nn(-c3nc(C(=O)O)cs3)c2CC2CC2)cc1` [Analog 63], the “concentration with nearly complete arrest of cell growth” value (MiaPaCa-2 cells) is reported as 20 µM and the “lowest concentration with effects on cellular proliferation” value (MiaPaCa-2 cells; dose-response) is reported as 250 nM.
